Assay results: PubChem BioAssay AID624359 (Broad Institute, 2012)
Results filed as inconclusive are left out. Active and inactive are the calls of the source.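 Rule for the calls: active = fitted curve reaches 35% inhibition at a concentration up to twice the top valid dose; inconclusive = no clear call, values can overlap the other calls; inactive = the rest, including signal moving the opposite way.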

Experiments:
[1] = LMP1-induced NF-kB luciferase signal inhibition – cell-based, EBV LMP1, dry powder, dose response (AID 624359); settings: HEK293 LMP1 TES2 NF-kB luciferase reporter, 16 h
[2] = system: HEK293 LMP1 TES2 NF-kB luciferase reporter, 16 h; assay: as above

SMILES | activity change, negative = inhibition ([1]; at 26 µM (top of the series)) | AC35 [2] [µM] | other results
C[C@@H]1CCCCO[C@H](CN(C)CC2CCCCC2)[C@H](C)CN([C@@H](C)CO)C(=O)c2cc(NC(=O)NC3CCCCC3)ccc2O1 | -3.54% (inactive) |  | 
Fc1ccc2c(c1)c1nnc(SCCN3CCOCC3)nc1n2Cc1ccccc1 |  | 10.1 | 
COc1ccccc1[C@]1(C)ON(c2ccccc2C(F)(F)F)C1=O |  | 7.88 | 
COc1ccc(C(=O)Nc2ccc3[nH]ccc3c2)cc1 | 13.6% (inactive) |  | 
CNC[C@@H]1Oc2ccc(NS(=O)(=O)c3cn(C)cn3)cc2CC(=O)N([C@H](C)CO)C[C@@H]1C | 7.33% (inactive) |  | 
C[C@@H]1CCCCO[C@H](CN(C)C(=O)CCC(F)(F)F)[C@H](C)CN([C@@H](C)CO)C(=O)c2cc(NC(=O)CCC(F)(F)F)ccc2O1 | -12.3% (inactive) |  | 
C/C(=N\NC(=S)N1CCN(c2ccccn2)CC1)c1ccccn1 |  | 10.5 | 
C/C(=N\NC(=S)Nc1ccccc1Cl)c1ccccn1 | 51.4% (inactive) |  | 
O=C(CCc1ccccc1)NC(c1cccs1)c1cc(Cl)c2cccnc2c1O (stereo not given) |  | 43.9 | 
Cc1ccc(NC(=O)C2CCN(S(=O)(=O)c3ccc4c(c3)NC(=O)C(C)S4)CC2)cc1Cl (stereo not given) |  | 4.01 | 
C/C(=N\NC(=S)N1CCC1)c1ccccn1 |  | 1.33 | 
CC12CCC3C(CC=C4CC(O)CCC43CO)C1CCC2OC(=O)c1ccccc1 (stereo not given) |  | 6.56 | 
CCc1ccc(/C=C/C(=O)C2C(=O)c3ccccc3C2=O)cc1 | 28.8% (inactive) |  | 
C[C@H](CO)N1C[C@H](C)[C@@H](CN(C)CC2CC2)OCCCC[C@H](C)Oc2ccc(NC(=O)Nc3cccc4ccccc34)cc2C1=O |  | 0.541 | 
C[C@@H]1CN([C@@H](C)CO)C(=O)c2cccc(NC(=O)Nc3cccc4ccccc34)c2O[C@H]1CN(C)C(=O)Nc1ccc(C(F)(F)F)cc1 | 26.9% (inactive) |  | 
COc1ccc2nc(Nc3nc(C)c(CCC(C)C)c(=O)[nH]3)nc(C)c2c1 | 42.5% (inactive) |  | 
O=C1/C(=C/c2ccncc2)SC(=S)N1Cc1ccccc1 |  | 29 | 
c1ccc(Cn2c3ccccc3c3nnc(SCCN4CCCCC4)nc32)cc1 |  | 11 | 
C[C@H](CO)N1C[C@H](C)[C@H](CN(C)C(=O)Nc2ccc(C(F)(F)F)cc2)OCCCC[C@H](C)Oc2ccc(NC(=O)Nc3ccc(F)cc3)cc2C1=O |  | 16.6 | 
Cc1ccc(S(=O)(=O)Nc2ccc3c(c2)C(=O)N([C@@H](C)CO)C[C@H](C)[C@@H](CN(C)C(=O)CCC(F)(F)F)OCCCC[C@H](C)O3)cc1 |  | 0.619 | 
C/C(=N\NC(=S)Nc1cccc(C)c1)c1ccccn1 | 74.3% (inactive) |  | 
Cc1ccc(S(=O)(=O)NC(CC(C)C)C(=O)NCC(c2ccco2)N2CCCCC2)cc1 (stereo not given) | -1.92% (inactive) |  | 

SMILES | activity change, negative = inhibition ([1]; at 26 µM (top of the series)) | AC35 [2] [µM] | other results
CCN1CCN(C(c2cccnc2)c2cc(Cl)c3cccnc3c2O)CC1 (stereo not given) |  | 7.4 | 
O=c1[nH]c(=O)n([C@H]2C[C@H](O)[C@@H](CO)O2)cc1C(F)(F)F |  | 8.74 | 
Oc1cccc(C(Nc2nccs2)c2ccc3cccnc3c2O)c1 (stereo not given) | 23.7% (inactive) |  | 
COc1ccc2[nH]c(C(=O)N/N=C/c3ccc(O)cc3O)cc2c1 |  | 9.11 | 
C/C(=N\NC(=S)N1CCCC1)c1ccccn1 |  | 0.884 | 
COc1ccc(-c2cc3nc4n(c(=O)c3s2)CCC4)cc1 | 20.7% (inactive) |  | 
CSC(=S)N/N=C(\C)c1cccc(C)n1 | 8.74% (inactive) |  | 
C=CCN1Cc2ccccc2[C@@H]2OC(c3ccc(OCCCO)cc3)=N[C@]2(CCC(=O)OC(C)(C)C)C1=O | 3.78% (inactive) |  | 
C[C@@H]1CCCCO[C@H](CN(C)C(=O)c2ccccc2)[C@H](C)CN([C@@H](C)CO)C(=O)c2cc(NC(=O)Nc3ccc(F)cc3)ccc2O1 | -13.1% (inactive) |  | 
C=C1C[C@]23C[C@@]1(O)CC[C@H]2[C@@]12C=C[C@H](O)[C@@](C)(C(=O)O1)[C@H]2[C@@H]3C(=O)O |  |  | activity change, negative = inhibition ([1]; at 15 µM (top of the series)): -4.73% (inactive)
CCCSc1nnc2c3ccccc3n(Cc3ccccc3)c2n1 |  | 3.4 | 
COc1ccccc1NC(=S)N/N=C(\C)c1ccccn1 | -20.4% (inactive) |  | 
C/C=C/C/C=C/CCC(=O)[C@H]1O[C@H]1C(N)=O |  | 13.2 | 
CC(=O)Nc1nc(C)c(-c2csc(Nc3ccc(O)cc3)n2)s1 | 83.3% (inactive) |  | 
S=C(N/N=C(\c1ccccc1)c1ccccn1)N(Cc1ccccn1)Cc1ccccn1 |  | 6 | 
CCC(Sc1nnc2c3ccccc3n(Cc3ccc(Br)cc3)c2n1)C(=O)NCCCN1CCOCC1 (stereo not given) |  | 5.65 | 
CC(C)=CCN(C(=O)C#Cc1ccccc1)[C@H](CO)c1ccccc1 |  | 3.79 | 
CCn1c2ccccc2c2cc(/C=N/n3cnnc3)ccc21 | 30.3% (inactive) |  | 
CCc1ccc(/C=C2\SC(=S)N(CCCC(=O)Nc3ccccn3)C2=O)cc1 | 9.57% (inactive) |  | 
c1ccc(-c2cn3c4c(sc3n2)CCCC4)cc1 | 6.83% (inactive) |  | 
CCc1sc(C(=O)Nc2ncccc2O)cc1C |  | 20.8 | 
CSc1nc(-c2ccc(C)cc2)nc(C(Cl)Cl)n1 | 12% (inactive) |  | 

SMILES | activity change, negative = inhibition ([1]; at 26 µM (top of the series)) | AC35 [2] [µM] | other results
COc1ccc(-c2csc3ncnc(NCCN4CCOCC4)c23)cc1 | 9.04% (inactive) |  | 
COc1cccc(/C=N/Nc2ncnc3c2ncn3Cc2ccccc2)c1O |  | 43.4 | 
C/C(=N\NC(=S)N1CCCCC1)c1cccc(C)n1 |  | 0.492 | 
Cc1c(NC(=O)c2cccc(NC(=O)COc3ccccc3C#N)c2)c(=O)n(-c2ccccc2)n1C | 47.5% (inactive) |  | 
C[C@@H]1CN([C@@H](C)CO)C(=O)c2cc(NC(=O)Nc3ccc4c(c3)OCO4)ccc2O[C@H]1CN(C)CC1CCCCC1 |  | 0.738 | 
Nc1ccn([C@@H]2O[C@H](CO)[C@@H](O)C2O)c(=O)n1 (stereo not given in full) |  | 27.5 | 
C/C(=N\NC(=S)N1CC2CCC(CC2)C1)c1ccncn1 | -1.33% (inactive) |  | 
C[C@H](CO)N1C[C@H](C)[C@@H](CN(C)CC2CCCCC2)OCCCC[C@H](C)Oc2ccc(NC(=O)Nc3cccc4ccccc34)cc2C1=O | 23.2% (inactive) |  | 
O=C(CSc1nnc2c3ccccc3n(Cc3ccccc3)c2n1)NCc1ccco1 | 12.9% (inactive) |  | 
C/C(=N\NC(=S)N1CCN(C2CCCCCC2)CC1)c1ccccn1 |  |  | activity change, negative = inhibition ([1]; at 12 µM (top of the series)): 33.5% (inactive)
CC1CN(C(=O)CSc2nnc3c4ccccc4n(Cc4cccc(Cl)c4)c3n2)CCN1C(=O)c1ccccc1F (stereo not given) | 42.2% (inactive) |  | 
COCCCNC(=O)C(C)Sc1nnc2c3cc(C)ccc3n(Cc3ccccc3F)c2n1 (stereo not given) |  | 25.8 | 
C[C@@H]1CCCCO[C@@H](CN(C)Cc2ccccc2)[C@H](C)CN([C@H](C)CO)C(=O)c2cc(NC(=O)Nc3ccc4c(c3)OCO4)ccc2O1 | -6.74% (inactive) |  | 
S=C(NCc1ccccn1)N/N=C/c1ccccn1 |  | 5.41 | 
O=C(Nc1cc(C(F)(F)F)cc(C(F)(F)F)c1)Nc1cnn(-c2ccc([N+](=O)[O-])cc2)c1C(F)(F)F |  | 40.7 | 
C[C@@H]1CCCCO[C@H](CN(C)S(=O)(=O)c2ccccc2)[C@@H](C)CN([C@@H](C)CO)C(=O)c2cc(N(C)C)ccc2O1 | -2.27% (inactive) |  | 
C[C@@H]1CN([C@@H](C)CO)C(=O)c2cc(NC(=O)Nc3ccc(C(F)(F)F)cc3)ccc2O[C@@H](C)CCCCO[C@H]1CN(C)Cc1ccc(C(F)(F)F)cc1 | 24% (inactive) |  | 
O=c1[nH]c(Nc2nc3ccccc3o2)nc2c1CCCC2 | 2.84% (inactive) |  | 
CC1=C(C(=O)OCc2ccc3c(c2)OCO3)C(c2ccc(F)cc2)NC(=O)N1 (stereo not given) | -13.4% (inactive) |  | 
C/C(=N\NC(=S)N1CC2CCC(CC2)C1)c1ccccn1 |  | 5.42 | 
C[C@H](CO)N1C[C@H](C)[C@@H](CN(C)Cc2ccc(-c3ccccc3)cc2)Oc2ccc(NC(=O)Nc3cccc4ccccc34)cc2CC1=O |  | 4.13 | 
